# Results reported in patent US12421253B2 (Mirati Therapeutics, Inc., priority 2020, dated 2025).
# pIC50: −log10 of the molar value.
# How the values were obtained:
# KRas^G12A = molecular target: T1, KRas^G12A (Homo sapiens, UniProt P01116, G12A); test: KRas binding assay (TR-FRET displacement of Cy5 labelled tracer)
# T1 construct: […]; biotin (biotinylated); purchased Accelegan Inc
# Method: (§1) The ability of a compound to bind to KRas was measured using a TR-FRET displacement assay. […] After a 60-minute incubation at room temperature, the reaction was measured using a BMG LABTECH CLARIO star Plus via TR-FRET. […] The POC values were fit to a 4-parameter IC50 equation and the IC50 value reported.
# KRas^G12S = molecular target: T2, KRas^G12S (Homo sapiens, UniProt P01116, G12S); test: as above
# T2 construct: […]; biotin (biotinylated); purchased Accelegan Inc
# Method: as §1
# KRas^G12V = molecular target: T3, KRas^G12V (Homo sapiens, UniProt P01116, G12V); test: as above
# T3 construct: […]; biotin (biotinylated); purchased Accelegan Inc
# Method: as §1
# KRas^G13D = KRas^G13D (Homo sapiens, UniProt P01116, G13D); test: biochemical
# Method: as §1
# KRas^G12R = molecular target: T4, KRas^G12R (Homo sapiens, UniProt P01116, G12R); test: KRas binding assay (TR-FRET displacement of Cy5 labelled tracer)
# T4 construct: […]; biotin (biotinylated); purchased Accelegan Inc
# Method: as §1
# KRas^WT = molecular target: T5, KRas^WT (Homo sapiens, UniProt P01116); test: as above
# T5 construct: […]; biotin (biotinylated); purchased Accelegan Inc
# Method: as §1
# KRas^G12D = molecular target: T6, KRas^G12D (Homo sapiens, UniProt P01116, G12D); test: as above
# T6 construct: […]; biotin (biotinylated); purchased Accelegan Inc
# Method: as §1
# KRas^Q61H = KRas^Q61H (Homo sapiens, UniProt P01116, Q61H); test: biochemical
# Method: as §1
# KRas^G12C = KRas^G12C (Homo sapiens, UniProt P01116, G12C); test: biochemical
# Sequence of KRas^G12C (P01116 1-169 isoform P01116-2 G12C): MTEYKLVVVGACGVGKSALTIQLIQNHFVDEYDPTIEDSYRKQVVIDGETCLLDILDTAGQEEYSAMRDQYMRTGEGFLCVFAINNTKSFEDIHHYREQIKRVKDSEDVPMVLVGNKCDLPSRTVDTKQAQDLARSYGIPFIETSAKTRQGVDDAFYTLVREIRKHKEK
# Method: as §1
# T3 sequence (P01116 1-169 isoform P01116-2 G12V): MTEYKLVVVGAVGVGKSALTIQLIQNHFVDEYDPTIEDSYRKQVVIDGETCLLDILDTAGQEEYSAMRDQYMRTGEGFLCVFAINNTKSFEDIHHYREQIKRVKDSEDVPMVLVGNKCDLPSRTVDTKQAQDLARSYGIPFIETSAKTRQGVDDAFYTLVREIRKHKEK
# Sequence of KRas^Q61H (P01116 1-169 isoform P01116-2 Q61H): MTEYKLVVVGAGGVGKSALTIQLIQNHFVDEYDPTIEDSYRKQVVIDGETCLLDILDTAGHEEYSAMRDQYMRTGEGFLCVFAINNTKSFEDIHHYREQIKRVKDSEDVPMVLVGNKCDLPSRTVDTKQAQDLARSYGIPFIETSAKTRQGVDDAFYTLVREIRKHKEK
# T2 sequence (P01116 1-169 isoform P01116-2 G12S): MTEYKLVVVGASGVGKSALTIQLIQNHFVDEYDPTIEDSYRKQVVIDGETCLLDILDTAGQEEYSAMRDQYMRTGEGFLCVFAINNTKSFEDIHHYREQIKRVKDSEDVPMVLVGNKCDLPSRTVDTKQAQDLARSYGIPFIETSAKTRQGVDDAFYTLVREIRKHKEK
# T6 sequence (P01116 1-169 isoform P01116-2 G12D): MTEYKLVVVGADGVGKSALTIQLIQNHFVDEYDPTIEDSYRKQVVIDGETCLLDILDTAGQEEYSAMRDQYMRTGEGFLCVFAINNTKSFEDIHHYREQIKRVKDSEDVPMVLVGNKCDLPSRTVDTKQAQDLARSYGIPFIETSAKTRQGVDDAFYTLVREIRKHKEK
# T5 sequence (P01116 1-169 isoform P01116-2): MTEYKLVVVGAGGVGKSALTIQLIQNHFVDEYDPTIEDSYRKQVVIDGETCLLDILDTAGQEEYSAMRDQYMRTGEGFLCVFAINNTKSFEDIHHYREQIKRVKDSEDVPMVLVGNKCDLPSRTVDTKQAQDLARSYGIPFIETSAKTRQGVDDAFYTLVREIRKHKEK
# T4 sequence (P01116 1-169 isoform P01116-2 G12R): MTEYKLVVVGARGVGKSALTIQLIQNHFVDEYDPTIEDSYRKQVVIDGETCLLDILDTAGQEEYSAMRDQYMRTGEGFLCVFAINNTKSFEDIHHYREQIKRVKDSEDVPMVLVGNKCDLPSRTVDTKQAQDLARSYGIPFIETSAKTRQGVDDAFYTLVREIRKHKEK
# Sequence of KRas^G13D (P01116 1-169 isoform P01116-2 G13D): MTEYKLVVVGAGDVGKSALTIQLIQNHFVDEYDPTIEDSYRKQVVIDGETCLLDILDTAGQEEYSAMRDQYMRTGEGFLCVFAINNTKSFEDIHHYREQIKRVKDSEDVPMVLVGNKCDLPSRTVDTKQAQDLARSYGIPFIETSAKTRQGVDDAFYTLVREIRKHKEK
# T1 sequence (P01116 1-169 isoform P01116-2 G12A): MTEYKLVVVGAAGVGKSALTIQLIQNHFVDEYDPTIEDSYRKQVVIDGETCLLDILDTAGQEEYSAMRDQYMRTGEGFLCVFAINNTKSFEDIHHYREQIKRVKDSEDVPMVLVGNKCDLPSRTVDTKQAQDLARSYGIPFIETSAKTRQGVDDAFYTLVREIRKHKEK
SMILES,pIC50 (KRas^G12A),pIC50 (KRas^G12S),pIC50 (KRas^G12V),pIC50 (KRas^G13D),pIC50 (KRas^G12R),pIC50 (KRas^WT),pIC50 (KRas^G12D),pIC50 (KRas^Q61H),pIC50 (KRas^G12C)
"CCc1cccc2cccc(N3CCc4c(nc(OCC56CCCN5CCC6)nc4N4CCCC(c5n[nH]c(C)n5)C4)C3)c12 (stereo not drawn) [Example 93, 7-(8-ethylnaphthalen-1-yl)-4-(3-(5-methyl-1H-1,2,4-triazol-3-yl)piperidin-1-yl)-2-((tetrahydro-1H-pyrrolizin-7a(5H)-yl)methoxy)-5,6,7,8-tetrahydropyrido[3,4-d]pyrimidine]",6.37,6.16,6.15,5.96,6.63,6.17,5.58,5.91,6.59
"CCc1cccc2cccc(N3CCc4c(nc(OCC56CCCN5CCC6)nc4NC4CN(c5ccccn5)C4)C3)c12 [Example 150, 7-(8-ethylnaphthalen-1-yl)-N-(1-(pyridin-2-yl)azetidin-3-yl)-2-((tetrahydro-1H-pyrrolizin-7a(5H)-yl)methoxy)-5,6,7,8-tetrahydropyrido[3,4-d]pyrimidin-4-amine]",5.30,5.31,5.59,5.22,5.81,5.33,5.26,5.29,5.71
"CCc1cccc2cccc(N3CCc4c(nc(OCC56CCCN5CCC6)nc4N4CCC(n5ccnn5)CC4)C3)c12 [Example 151, 4-(4-(1H-1,2,3-triazol-1-yl)piperidin-1-yl)-7-(8-ethylnaphthalen-1-yl)-2-((tetrahydro-1H-pyrrolizin-7a(5H)-yl)methoxy)-5,6,7,8-tetrahydropyrido[3,4-d]pyrimidine]",5.57,5.33,5.27,5.57,5.79,5.44,4.51,5.34,5.46
CCc1cccc2cccc(N3CCc4c(nc(OCC56CCCN5CCC6)nc4N4CCCCC(C)C4)C3)c12 (stereo not drawn) [Example 119],6.19,6.10,6.25,6.13,6.08,6.01,5.98,6.11,6.09
"CCc1cccc2cccc(N3CCc4c(nc(OCC56CCCN5CCC6)nc4N4CCOCC(C)(O)C4)C3)c12 (stereo not drawn) [Example 22, 4-(7-(8-ethylnaphthalen-1-yl)-2-((hexahydro-1H-pyrrolizin-7a-yl)methoxy)-5,6,7,8-tetrahydropyrido[3,4-d]pyrimidin-4-yl)-6-methyl-1,4-oxazepan-6-ol]",7.03,7.05,7.15,7.00,6.91,6.98,7.17,7.02,7.14
"CCc1cccc2cccc(N3CCc4c(nc(OCC56CCCN5CCC6)nc4N4CCCCCC4)C3)c12 [Example 49, 4-(azepan-1-yl)-7-(8-ethylnaphthalen-1-yl)-2-((hexahydro-1H-pyrrolizin-7a-yl)methoxy)-5,6,7,8-tetrahydropyrido[3,4-d]pyrimidine]",6.50,6.44,6.74,6.18,6.78,6.24,6.33,6.15,6.56
"CCc1cccc2cccc(N3CCc4c(nc(OCC56CCCN5CCC6)nc4NC4CCNC(=O)C4)C3)c12 (stereo not drawn) [Example 153, 4-((7-(8-ethylnaphthalen-1-yl)-2-((tetrahydro-1H-pyrrolizin-7a(5H)-yl)methoxy)-5,6,7,8-tetrahydropyrido[3,4-d]pyrimidin-4-yl)amino)piperidin-2-one]",5.14,5.38,5.47,5.19,5.33,5.07,5.76,5.09,5.46
"CCc1cccc2cccc(N3CCc4c(nc(OCC56CCCN5CCC6)nc4N4CCCC(c5nc(C)c(C)[nH]5)C4)C3)c12 (stereo not drawn) [Example 120, 4-(3-(4,5-dimethyl-1H-imidazol-2-yl)piperidin-1-yl)-7-(8-ethylnaphthalen-1-yl)-2-((tetrahydro-1H-pyrrolizin-7a(5H)-yl)methoxy)-5,6,7,8-tetrahydropyrido[3,4-d]pyrimidine]",5.81,5.61,5.38,5.70,5.88,5.74,5.20,5.68,6.24
"CCc1cccc2cccc(N3CCc4c(nc(OCC56CCCN5CCC6)nc4N4CCCC(N5CC(C)CS5(=O)=O)C4)C3)c12 (stereo not drawn) [Example 83, 2-(1-(7-(8-ethylnaphthalen-1-yl)-2-((tetrahydro-1H-pyrrolizin-7a(5H)-yl)methoxy)-5,6,7,8-tetrahydropyrido[3,4-d]pyrimidin-4-yl)piperidin-3-yl)-4-methylisothiazolidine 1,1-dioxide]",6.69,6.62,6.37,6.86,6.51,7.08,6.03,6.72,6.72
"CCc1cccc2cccc(N3CCc4c(nc(OCC56CCCN5CCC6)nc4N4CCCC(c5ccn[nH]5)C4)C3)c12 (stereo not drawn) [Example 115, 4-(3-(1H-pyrazol-5-yl)piperidin-1-yl)-7-(8-ethylnaphthalen-1-yl)-2-((tetrahydro-1H-pyrrolizin-7a(5H)-yl)methoxy)-5,6,7,8-tetrahydropyrido[3,4-d]pyrimidine]",5.96,5.87,5.74,5.86,6.34,5.94,5.52,5.92,6.03
"CCc1cccc2cccc(N3CCc4c(nc(OCC56CCCN5CCC6)nc4N4CCCC(N5CCCC5=O)C4)C3)c12 (stereo not drawn) [Example 137, 1-(1-(7-(8-ethylnaphthalen-1-yl)-2-((tetrahydro-1H-pyrrolizin-7a(5H)-yl)methoxy)-5,6,7,8-tetrahydropyrido[3,4-d]pyrimidin-4-yl)piperidin-3-yl)pyrrolidin-2-one]",6.02,5.97,5.83,5.87,5.94,5.78,5.49,5.83,5.99
"CCc1cccc2cccc(N3CCc4c(nc(OCC56CCCN5CCC6)nc4N4CCCC(c5cn(C)nn5)C4)C3)c12 (stereo not drawn) [Example 118, 7-(8-ethylnaphthalen-1-yl)-4-(3-(1-methyl-1H-1,2,3-triazol-4-yl)piperidin-1-yl)-2-((tetrahydro-1H-pyrrolizin-7a(5H)-yl)methoxy)-5,6,7,8-tetrahydropyrido[3,4-d]pyrimidine]",6.06,6.04,6.02,5.80,6.25,5.71,5.75,5.83,6.19
"CCc1cccc2cccc(N3CCc4c(nc(OCC56CCCN5CCC6)nc4N4CCCC(c5n[nH]cc5NC(C)=O)C4)C3)c12 (stereo not drawn) [Example 143, N-(3-(1-(7-(8-ethylnaphthalen-1-yl)-2-((tetrahydro-1H-pyrrolizin-7a(5H)-yl)methoxy)-5,6,7,8-tetrahydropyrido[3,4-d]pyrimidin-4-yl)piperidin-3-yl)-1H-pyrazol-4-yl)acetamide]",5.65,5.61,5.38,5.88,5.70,5.69,5.23,5.90,5.72
"CCc1cccc2cccc(N3CCc4c(nc(OCC56CCCN5CCC6)nc4NCc4nnc(CSC)[nH]4)C3)c12 [Example 161, 7-(8-ethylnaphthalen-1-yl)-N-((5-((methylthio)methyl)-4H-1,2,4-triazol-3-yl)methyl)-2-((tetrahydro-1H-pyrrolizin-7a(5H)-yl)methoxy)-5,6,7,8-tetrahydropyrido[3,4-d]pyrimidin-4-amine]",4.66,4.82,5.56,4.60,4.84,4.56,5.11,4.67,5.17
"CCc1cccc2cccc(N3CCc4c(nc(OCC56CCCN5CCC6)nc4N4CCCC(O)CC4)C3)c12 (stereo not drawn) [Example 7, 1-(7-(8-ethylnaphthalen-1-yl)-2-((tetrahydro-1H-pyrrolizin-7a(5H)-yl)methoxy)-5,6,7,8-tetrahydropyrido[3,4-d]pyrimidin-4-yl)azepan-4-ol]",7.04,6.97,7.17,6.84,7.30,6.84,6.92,6.76,7.05
"O=C1NC(=O)C2CN(c3nc(OCC45CCCN4CCC5)nc4c3CCN(c3cccc5cccc(F)c35)C4)CC12 (stereo not drawn) [Example 81, 5-(7-(8-fluoronaphthalen-1-yl)-2-((hexahydro-1H-pyrrolizin-7a-yl)methoxy)-5,6,7,8-tetrahydropyrido[3,4-d]pyrimidin-4-yl)tetrahydropyrrolo[3,4-c]pyrrole-1,3(2H,3aH)-dione]",5.39,5.94,5.47,5.43,5.40,5.44,5.27,5.27,5.45
